Measurements as given in paper PMC7095870 (Nature Medicine, 2000).
No end group written: not given here.

Experiments:
[1] = system: RSV (A2 strain) in HEp-2 cells
[2] = system: RSV F (HEp-2 cells expressing RSV F, G and SH); format: cell-based, respiratory syncytial virus
RSV F protein = details: ref [14], cited from earlier work
[3] = system: RSV F construct FN155 (F residues 155–550); details: yeast two-hybrid assay; FN155 construct encoding F residues 155–550; ref [14]; cited from earlier work

Substance: TDVILMCFSIDSPDSLENI [RhoA77-95]
- IC50 ([1]; 1 h): 0.25 µM

Substance: DSPDSLENIPEKWTPEVKH [RhoA87-105]
- plaque formation ([1]; pretreatment of virus inoculum, 1 h on ice, peptide 5 and 10 μg/ml, HEp-2 cells, 3 d, relative to media-treated controls): did not have any effect
- cell-to-cell fusion induced by RSV F [2]: not inhibited

Substance: RhoA amino acids 67–110: F binding domain of RhoA (amino acids 67–110)
- binding to RSV F amino acids 146–155 (RSV F protein; RhoA amino acids 67–110): bind

Substance: RhoA: RhoA, a small GTPase of the Ras superfamily
- binding to RSV F construct expressing the heptad repeat region [3]: not bind
- binding to RSV F protein (RSV F protein): binds

Substance: DRLRPLSYPDTDVILMCFS [RhoA67-85]
- RSV-induced syncytium formation ([1]; peptide incubated 1 h on ice with RSV, 5 and 10 μg/ml, HEp-2 cells, 3 d): did not block
